Where two headings read alike, the source gives them in different places.
Tests used:
[1] = test system: Akt^Ser473 phosphorylation in A2780 xenograft tumors; test: In vivo target modulation (PK/PD) in A2780 ovarian cancer xenograft tumors (Biological Method 3); design: species or system nu/nu mice; conditions: for inhibition at 100 mg/kg: 100 mg/kg single oral dose; for inhibition at 100 mg/kg / inhibition at 60 mg/kg: A2780 xenograft tumors, read-out: Modulation of Akt^Ser473 phosphorylation (percentage inhibition compared to vehicle); for inhibition at 60 mg/kg: 60 mg/kg single oral dose
Description: (§1) A2780 ovarian cancer cells obtained from George Coukos (Fox Chase Cancer Center, University of Pennsylvania, Philadelphia, Pa.) were maintained in DMEM (Invitrogen, Inc.) supplemented with 10% heat-inactivated fetal bovine serum with 1% glutamine. Cells were propagated as recommended by the Dr. Coukos and colleagues. Female nu/nu mice (8-12 weeks old, 20-25 g, Charles River) were used for all in vivo pharmacology studies. The mice were housed and maintained in accordance with state and federal guidelines for the humane treatment and care of laboratory animals and received food and water ad libitum. Cancer cells were harvested from mid-log phase cultures using trypsin-EDTA (Invitrogen, Inc.). Five million cells were subcutaneously injected into the right flank of each mouse. Compound treatment was initiated when tumor size reached to 300-400 mm^3 for PK/PD studies and 200-300 mm^3 for efficacy studies. All compound treatment was administrated orally. Tumor volumes were determined by using StudyDirector software.
For PK/PD dose-dependent studies, tumor-bearing mice were given a single oral dose of compound at different concentrations (10, 30, 60 and 100 mg/kg or vehicle) and tumors were resected at 10 hr or 24 hr after dosing. Blood samples were taken by cardiac puncture using a syringe primed with heparin sulfate. Resected tumors were snap frozen on dry ice and pulverized using a liquid nitrogen-cooled cryomortar and pestle, and lysed in cold cell extraction buffer (Biosource) containing protease inhibitor tablet (Complete; EDTA-free, Amersham). Supernatants were taken after centrifugation of tumor lysates at 300×g for 10 min at 4° C. and the protein concentration in each supernatant was determined by BCA (BioRad). An equal amount of protein from each tumor lysate was loaded onto 10% Tris-glycine gels (Invitrogen), for sodiumdoceylsulfate-polyacrylamide gel electrophoresis (SDS-PAGE) after which proteins were transferred from the gel onto PVDF membrane. Membranes were probed with antibodies that recognize phosphoAkt^Ser473 or phosphoAkt^Thr308 (Cell Signaling) followed by secondary goat anti-rabbit IgG conjugated to HRP(Amersham). Positive bands were visualized by enhanced chemiluminescence with X-ray film. Similar procedures were used to determine total AKT in the same tumor lysates to serve as normalization for total protein in each determination. The density of the positive band on the X-ray film was scanned and the target modulation for each compound was expressed as percentage inhibition by each compound compared to vehicle treatment.
(§2) For efficacy studies, A2780 cancer cells (5×10^6 in 100 μl of DMEM culture medium) were injected subcutaneously into the right flank of each nu/nu mouse. […] Tumor growth and animal body weight was measured twice weekly with daily clinical observation to monitor potential toxicities related to the treatment. […] Activation of the PI3K signaling pathway results in the phosphorylation of the downstream signaling molecule Akt at Ser^473 and/or Thr^308. Compound modulation of Akt^Ser473 phosphorylation was examined in A2780 xenograft tumors at time points ranging from 30 min to 36 hr after a single compound dose at 60 or 100 mg/kg.

PI3 kinase alpha = PI3 kinase alpha (Homo sapiens, UniProt P42336); test: PI3K ATP depletion assay (Biological Method 1, Assay 3; KinaseGlo luminescence); format: biochemical; conditions: ATP depletion assay, read-out: PI3 Kinase Alpha, IC50
Sequence of PI3 kinase alpha (P42336 whole entry): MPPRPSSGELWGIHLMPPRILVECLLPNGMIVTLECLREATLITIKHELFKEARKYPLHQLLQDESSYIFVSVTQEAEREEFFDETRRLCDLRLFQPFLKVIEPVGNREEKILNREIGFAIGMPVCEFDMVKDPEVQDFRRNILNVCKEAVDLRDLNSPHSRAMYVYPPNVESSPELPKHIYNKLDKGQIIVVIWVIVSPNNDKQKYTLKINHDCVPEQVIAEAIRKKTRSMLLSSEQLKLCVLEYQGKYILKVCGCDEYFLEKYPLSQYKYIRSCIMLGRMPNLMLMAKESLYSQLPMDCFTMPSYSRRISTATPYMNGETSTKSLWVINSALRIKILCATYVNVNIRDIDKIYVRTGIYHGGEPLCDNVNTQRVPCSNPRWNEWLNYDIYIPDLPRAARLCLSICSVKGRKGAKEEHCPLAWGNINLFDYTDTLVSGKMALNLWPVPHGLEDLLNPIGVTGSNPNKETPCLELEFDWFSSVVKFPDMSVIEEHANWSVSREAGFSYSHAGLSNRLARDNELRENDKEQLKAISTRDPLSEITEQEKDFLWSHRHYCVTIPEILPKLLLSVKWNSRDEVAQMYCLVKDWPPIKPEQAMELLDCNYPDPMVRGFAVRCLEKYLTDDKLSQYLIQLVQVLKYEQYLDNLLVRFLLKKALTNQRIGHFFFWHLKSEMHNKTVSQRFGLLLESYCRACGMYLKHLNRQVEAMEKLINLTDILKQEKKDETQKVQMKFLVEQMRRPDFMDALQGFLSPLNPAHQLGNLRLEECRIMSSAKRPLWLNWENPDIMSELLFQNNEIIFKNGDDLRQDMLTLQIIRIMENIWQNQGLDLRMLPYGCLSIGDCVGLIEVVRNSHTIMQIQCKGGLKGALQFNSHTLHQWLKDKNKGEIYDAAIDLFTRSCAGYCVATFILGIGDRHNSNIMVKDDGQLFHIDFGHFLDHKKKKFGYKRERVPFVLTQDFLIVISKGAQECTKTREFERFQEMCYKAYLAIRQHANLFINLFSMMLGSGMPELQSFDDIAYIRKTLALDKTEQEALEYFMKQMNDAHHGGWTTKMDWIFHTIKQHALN
Sequence of PI3 kinase alpha (P27986 whole entry partner): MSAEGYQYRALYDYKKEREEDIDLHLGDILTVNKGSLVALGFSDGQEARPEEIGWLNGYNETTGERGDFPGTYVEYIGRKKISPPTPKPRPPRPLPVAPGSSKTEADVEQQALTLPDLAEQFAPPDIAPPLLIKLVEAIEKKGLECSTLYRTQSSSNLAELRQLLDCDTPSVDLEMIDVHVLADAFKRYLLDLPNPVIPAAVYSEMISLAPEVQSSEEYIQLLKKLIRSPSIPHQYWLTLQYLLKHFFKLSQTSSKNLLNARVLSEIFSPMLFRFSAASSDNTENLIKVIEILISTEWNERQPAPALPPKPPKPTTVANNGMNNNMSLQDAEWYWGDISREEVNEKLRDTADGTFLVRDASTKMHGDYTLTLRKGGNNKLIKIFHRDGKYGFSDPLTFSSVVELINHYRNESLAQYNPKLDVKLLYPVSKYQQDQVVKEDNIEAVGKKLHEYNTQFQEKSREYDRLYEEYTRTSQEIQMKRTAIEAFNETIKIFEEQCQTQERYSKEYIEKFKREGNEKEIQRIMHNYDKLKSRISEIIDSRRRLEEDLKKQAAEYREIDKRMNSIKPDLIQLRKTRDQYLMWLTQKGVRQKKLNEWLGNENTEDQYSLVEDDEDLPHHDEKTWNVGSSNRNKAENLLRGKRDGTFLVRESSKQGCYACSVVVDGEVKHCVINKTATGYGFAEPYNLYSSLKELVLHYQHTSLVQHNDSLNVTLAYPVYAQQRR
How it was run: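 Compound in DMSO was mixed with 10 nM PI3 kinase and 5 μg/mL phosphatidylinositol, and the reaction was started with 2 μM ATP. It ran to about 50% ATP depletion and was stopped with KinaseGlo.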

[2] = test system: pSer473 Akt in A2780 cells; test: pSer473 Akt assay to monitor PI3K pathway in A2780 cells (Biological Method 2, MSD); format: cell-based; conditions: Homo sapiens, inhibition of Akt phosphorylation
How it was run: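 A2780 ovarian cancer cells in DMEM/10% FBS were treated with compound for 1 h at 37 °C, then lysed. pSer473-Akt and total Akt were measured by MSD electrochemiluminescence immunoassay. The pSer473/total Akt ratio gave % inhibition versus DMSO, from which EC50 was derived.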

[3] = test system: A2780 ovarian cancer cells; test: Cellular proliferation in A2780 cells, Cell Titer Glo (Biological Method 4); format: cell-based; conditions: Homo sapiens
How it was run: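 A2780 cells seeded at 1,000/well in DMEM with 10% FBS, at least 2 h before compound, then exposed 72 h at 37 °C, 5% CO2. Viable cells measured by Cell Titer Glo luminescence; EC50 calculated from duplicate conditions.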

A2780 tumor xenograft = test: Efficacy study in A2780 ovarian cancer xenograft model (Biological Method 3); format: in vivo, nu/nu mice
Description: as §1, §2

[4] = 60 mg/kg oral daily, A2780 model
[5] = ovarian cancer cell line A2780, Biological Method 4

IC50 (PI3 kinase alpha) [nM] | EC50 ([2]; A2780 cells) [nM] | EC50 ([3]; ovarian cancer cell line A2780) [nM] | SMILES | further results
< 1000 | < 1000 | < 10000 | Nc1ncc(-c2cc(OC3CCOCC3)nc(N3CCOCC3)n2)c(C(F)(F)F)n1 [Compound 66] | inhibition at 60 mg/kg ([1]; Mus musculus, 10 hr): < 50%
< 1000 | < 1000 | < 1000 | CC(C)(C)OC(=O)N1CCC(Oc2cc(-c3cnc(N)nc3N)nc(N3CCOCC3)n2)CC1 [Compound 28] | 
< 1000 | < 1000 | < 1000 | Nc1ncc(-c2cc(OC3CCN(C(=O)OC4CCCC4)CC3)nc(N3CCOCC3)n2)c(=O)[nH]1 [Compound 47] | 
< 1000 | < 1000 | < 1000 | Nc1ccc(-c2cc(Nc3cnc4ccccc4c3)nc(N3CCOCC3)n2)c(Cl)n1 [Compound 195] | 
< 1000 | < 1000 | < 1000 | Nc1cc(C(F)(F)F)c(-c2cc(OC3CCOCC3)nc(N3CCOCC3)n2)cn1 [Compound 24] | 
< 1000 | < 1000 | < 10000 | CS(=O)(=O)N1CCC(Oc2cc(-c3cnc(N)nc3N)nc(N3CCOCC3)n2)CC1 [Compound 120] | 
< 1000 | < 1000 | < 1000 | Nc1ncc(-c2cc(OC3CCN(C(=O)c4ccccc4)CC3)nc(N3CCOCC3)n2)c(=O)[nH]1 [Compound 48] | 
< 1000 | < 1000 | < 1000 | Nc1cc(C(F)(F)F)c(-c2cc(Nc3ccncc3C(F)(F)F)nc(N3CCOCC3)n2)cn1 [Compound 153] | 
< 1000 | < 1000 | < 1000 | CC(C)N1CCC(Oc2ccc(Nc3cc(-c4cnc(N)nc4N)nc(N4CCOCC4)n3)cn2)CC1 [Compound 68] | 
< 1000 | < 1000 | < 10000 | CC(C)C(=O)N1CCC[C@H](Oc2cc(-c3cnc(N)nc3N)nc(N3CCOCC3)n2)C1 [Compound 72] | 
< 1000 | < 1000 | < 1000 | Nc1ccc(-c2cc(Nc3cnc4ccc(OCCN5CCCC5)cc4c3)nc(N3CCOCC3)n2)cn1 [Compound 181] | 
< 1000 | < 1000 | < 10000 | Nc1ccc(-c2cc(Nc3ccccc3N3CCOCC3)nc(N3CCOCC3)n2)cn1 [Compound 180] | 
< 1000 | < 1000 | < 1000 | Cc1cc(Nc2cc(-c3ccc(N)nc3)nc(N3CCOCC3)n2)ccn1 [Compound 130] | 
< 1000 | < 1000 | < 10000 | Nc1ncc(-c2cc(Nc3ccccc3F)nc(N3CCOCC3)n2)cn1 [Compound 87] | 
< 1000 | < 1000 | < 10000 | CS(=O)(=O)c1ccccc1Nc1cc(-c2ccc(N)nc2)nc(N2CCOCC2)n1 [Compound 141] | 
< 1000 | < 1000 | < 1000 | Nc1ccc(-c2cc(Nc3ccncc3)nc(N3CCOCC3)n2)cn1 [Compound 184] | 

Further lines, the molecule ahead of its results:

SMILES | IC50 (PI3 kinase alpha) [nM] | EC50 ([2]; A2780 cells) [nM] | EC50 ([3]; ovarian cancer cell line A2780) [nM] | further results
Cc1c(Nc2cnc3ccccc3c2)nc(N2CCOCC2)nc1-c1cnc(N)nc1 [Compound 103] | < 1000 | < 1000 | < 1000 | inhibition at 100 mg/kg ([1]; Mus musculus, 8 hr): < 50%
Nc1ncc(-c2cc(OC3CCOCC3)nc(N3CCOCC3)n2)c(N)n1 [Compound 84] | < 1000 | < 1000 | < 1000 | inhibition at 60 mg/kg ([1]; Mus musculus, 10 hr): 50 to 75%; Tumor growth inhibition (A2780 tumor xenograft; [4]): < 50%
COc1ccc(Nc2cc(-c3cnc(N)nc3)nc(N3CCOCC3)n2)cn1 [Compound 91] |  | < 1000 | < 1000 | Duration of target modulation (50% inhibition) ([1]; 60 mg/kg, A2780 tumors): 8 h; inhibition at 100 mg/kg ([1]; Mus musculus, 8 hr): > 50%; Tumor growth inhibition (A2780 tumor xenograft; 10 mg/kg oral twice daily, A2780 tumors (FIG. 1)): no inhibitory activity; Tumor growth inhibition (A2780 tumor xenograft; 60 mg/kg oral twice daily, A2780 tumors (FIG. 1)): 50%
CC(C)C(=O)N1CCC[C@@H](Oc2cc(-c3cnc(N)nc3N)nc(N3CCOCC3)n2)C1 [Compound 137] | < 1000 | < 1000 | < 10000 | 
Nc1ccc(-c2cc(Nc3cnc4ccccc4c3)nc(N3CCOCC3)n2)c(F)n1 [Compound 169] | < 1000 | < 1000 | < 1000 | 
Nc1ccc(-c2cc(Nc3cnc4ccccc4c3)nc(N3CCOCC3)n2)cn1 [Compound 183] |  | < 1000 | < 1000 | inhibition at 100 mg/kg ([1]; Mus musculus, 8 hr): 50 to 75%
CS(=O)(=O)c1cccc(-c2cc(-c3cnc(N)cc3Cl)nc(N3CCOCC3)n2)c1 [Compound 165] | < 1000 | < 1000 | < 1000 | 
CC(=O)N1CCC(Oc2cc(-c3cnc(N)[nH]c3=O)nc(N3CCOCC3)n2)CC1 [Compound 30] | < 1000 | < 1000 | < 1000 | 
N#Cc1cc(-c2cnc(N)cc2C(F)(F)F)nc(N2CCOCC2)n1 [Compound 209] |  |  |  | IC50 (PI3 kinase alpha; Biological Method 1): < 1000 nM; EC50 ([2]; A2780, Biological Method 2): < 10000 nM; EC50 [3, 5]: < 10000 nM
CS(=O)(=O)c1cccc(Nc2cc(-c3ccc(N)nc3)nc(N3CCOCC3)n2)c1 [Compound 139] | < 1000 | < 1000 | < 10000 | 
CC(C)N1CCC(Oc2ccc(Nc3cc(-c4cnc(N)cc4C(F)(F)F)nc(N4CCOCC4)n3)cc2)CC1 [Compound 552] | < 1000 |  | < 10000 | EC50 ([2]; A2780): < 1000 nM
Nc1ncc(-c2cc(Nc3ccc4cn[nH]c4c3)nc(N3CCOCC3)n2)cn1 [Compound 135] | < 1000 | < 1000 | < 1000 | 
Nc1ncc(-c2cc(OC3CCN(C(=O)OCc4ccccc4)CC3)nc(N3CCOCC3)n2)c(C(F)(F)F)n1 [Compound 176] | < 1000 | < 1000 | < 10000 | 
Nc1ncc(-c2cc(Nc3ccc4c(c3)OCCO4)nc(N3CCOCC3)n2)cn1 [Compound 67] | < 1000 | < 1000 | < 1000 | 
CS(=O)(=O)c1cccc(-c2cc(-c3cnc(N)cc3C#N)nc(N3CCOCC3)n2)c1 [Compound 92] | < 1000 | < 1000 | < 1000 | 
Cc1c(Nc2ccc(OC(CO)CO)nc2)nc(N2CCOCC2)nc1-c1cnc(N)nc1 [Compound 212] |  |  |  | IC50 (PI3 kinase alpha; Biological Method 1): < 1000 nM; EC50 ([2]; A2780, Biological Method 2): < 10000 nM; EC50 [3, 5]: < 25000 nM
CC(C)N1CCC(Oc2ccc(Nc3cc(-c4cnc(N)cc4C(F)(F)F)nc(N4CCOCC4)n3)cn2)CC1 [Compound 11] | < 1000 | < 1000 | < 1000 | 
Nc1cc(C(F)(F)F)c(-c2cc(N3CCOCC3)nc(N3CCOCC3)n2)cn1 [Compound 10] |  | < 1000 | < 1000 | inhibition at 30 mg/kg ([1]; Mus musculus, A2780, 30 mg/kg oral b.i.d., read-out: Target inhibition in A2780 tumors, sustained over the whole dosing period): < 75%; inhibition at 60 mg/kg ([1]; Mus musculus, 10 hr): > 75%; inhibition at 100 mg/kg ([1]; Mus musculus, 10 hr): > 75%; Antitumor activity (A2780 tumor xenograft; 30 mg/kg oral b.i.d., A2780 model (FIG. 5)): significant antitumor activity; Tumor growth inhibition (A2780 tumor xenograft; 30 mg/kg oral daily, A2780 model): 40%; Tumor growth inhibition (A2780 tumor xenograft; [4]): 70%; Tumor growth inhibition (A2780 tumor xenograft; 100 mg/kg oral daily, A2780 model (FIG. 2)): tumor growth stasis
